Test results as given in patent US20240116946A1 (Gilead Sciences, Inc., priority 2022, published 2024).
Read-outs that look alike come from different tables or passages of the source.

Assays:
[1] = molecular target: recombinant SARS-CoV-2 Main protease (Mpro) (Severe acute respiratory syndrome coronavirus 2 (2019-nCoV) (SARS-CoV-2), UniProt P0DTD1); experiment: Cov Mpro Biochemical IC50 Assay; conditions: recombinant SARS-CoV-2 Mpro 7.5 nM, fluorogenic peptide substrate 40 μM; read-out: MPro IC50
SARS-CoV-2-NLuc = experiment: microbe, parasite or virus in culture; type: cell-based, SARS Coronavirus 2
[2] = Severe acute respiratory syndrome coronavirus, 48 h, read-out: MPro EC50
[3] = Severe acute respiratory syndrome coronavirus, 48 h; read-out: MPro EC50

Row | SMILES | IC50 [1] [nM] | EC50 (SARS-CoV-2-NLuc; [2]) [nM] | EC50 (SARS-CoV-2-NLuc; [3]) [nM]
1 | COc1ccc(Cl)c(-c2cc3[nH]c(=O)n(-c4cncc5ccc(N6CCNC(=O)C6)cc45)c(=O)c3s2)c1 [Example 416] | 4.63 | 187 | 
2 | O=c1[nH]c2cc(-c3ccccc3Cl)sc2c(=O)n1-c1cncc2ccc(N3CCO[C@H](C(F)(F)F)C3)cc12 [Example 417] | 17.8 | 160 | 
3 | COc1ccc(C#N)c(-c2cc3[nH]c(=O)n(-c4cncc5ccc(N6CCC(F)(F)C6)cc45)c(=O)c3s2)c1 [Example 418] | 21.4 | 126 | 
4 | O=c1[nH]c2cc(-c3ccccc3Cl)sc2c(=O)n1-c1cncc2ccc(N3CC4(C3)CC(F)(F)C4)cc12 [Example 419] | 21.1 | 74.9 | 
5 | O=c1[nH]c2cc(-c3ccccc3Cl)sc2c(=O)n1-c1cncc2ccc(N3CC(F)(F)C3)cc12 [Example 420] | 10.8 | 50.9 | 
6 | CS(=O)(=O)N1CCN(c2ccc3cncc(-n4c(=O)[nH]c5cc(-c6ccccc6Cl)sc5c4=O)c3c2)CC1 [Example 421] | 4.42 | 38.8 | 
7 | CC(=O)N1CC2(C1)CN(c1ccc3cncc(-n4c(=O)[nH]c5cc(-c6ccccc6Cl)sc5c4=O)c3c1)C2 [Example 422] | 7.75 |  | 134
8 | O=C(C1CC1)N1CCN(c2ccc3cncc(-n4c(=O)[nH]c5cc(-c6ccccc6Cl)sc5c4=O)c3c2)CC1 [Example 423] | 6.5 | 53.7 | 
9 | CS(=O)(=O)N1CC2(CN(c3ccc4cncc(-n5c(=O)[nH]c6cc(-c7ccccc7Cl)sc6c5=O)c4c3)C2)C1 [Example 424] | 11.3 | 55.8 | 
10 | COc1ccc(Cl)c(-c2cc3[nH]c(=O)n(-c4cncc5ccc(N6CCN(S(C)(=O)=O)CC6)cc45)c(=O)c3s2)c1 [Example 425] | 7.69 |  | 30
11 | O=c1[nH]c2cc(-c3ccccc3Cl)sc2c(=O)n1-c1cncc2ccc(N3CC(O)(C(F)(F)F)C3)cc12 [Example 426] | 21.3 | 40.9 | 
12 | O=c1[nH]c2cc(-c3ccccc3Cl)sc2c(=O)n1-c1cncc2ccc(N3CCC(O)(C(F)(F)F)CC3)cc12 [Example 427] | 15.6 | 24 | 
13 | COc1ccc(C#N)c(-c2cc3[nH]c(=O)n(-c4cncc5ccccc45)c(=O)c3cc2F)c1 [Example 428, 2-(6-fluoro-3-(isoquinolin-4-yl)-2,4-dioxo-1,2,3,4-tetrahydroquinazolin-7-yl)-4-methoxybenzonitrile] | 10.2 | 17.9 | 
14 | COc1ccc(C#N)c(-c2cc3[nH]c(=O)n(-c4cncc5ccc(OC)cc45)c(=O)c3cc2F)c1 [Example 429] | 2.83 | 11.2 | 
15 | COc1ccc(Cl)c(-c2ccc3c(=O)n(-c4cncc5ccc(N6CCOCC6)cc45)c(=O)[nH]c3c2)c1 [Example 430] | 11.8 |  | 18.5
16 | COc1ccc(C#N)c(-c2ccc3c(=O)n(-c4cncc5ccc(N6CCOCC6)cc45)c(=O)[nH]c3c2)c1 [Example 431] | 10.5 | 71.3 | 
17 | COc1ccc(Cl)c(-c2cc3[nH]c(=O)n(-c4cncc5ccc(N6CCOCC6)cc45)c(=O)c3s2)c1 [Example 432] | 6.99 |  | 6.37
18 | COc1ccc(C#N)c(-c2cc3[nH]c(=O)n(-c4cncc5ccc(N6CCOCC6)cc45)c(=O)c3s2)c1 [Example 433] | 7.8 | 69.5 | 
19 | COc1ccc(Cl)c(-c2cc3[nH]c(=O)n(-c4cncc5ccc(N6CCOCC6)cc45)c(=O)c3cc2F)c1 [Example 434] | 16 |  | 33.3
20 | COc1ccc(C#N)c(-c2cc3[nH]c(=O)n(-c4cncc5ccc(N6CCOCC6)cc45)c(=O)c3cc2F)c1 [Example 435] | 6.97 | 37.4 | 

Row | SMILES | IC50 [1] [nM] | EC50 (SARS-CoV-2-NLuc; [2]) [nM] | EC50 (SARS-CoV-2-NLuc; [3]) [nM]
21 | COc1ccc(Cl)c(-c2cc3[nH]c(=O)n(-c4cncc5nc(C67CC(F)(C6)C7)n(C)c45)c(=O)c3s2)c1 [Example 436] | 164 |  | 489
22 | COc1ccc(C#N)c(-c2cc3[nH]c(=O)n(-c4cncc5nc(C67CC(F)(C6)C7)n(C)c45)c(=O)c3s2)c1 [Example 437] | 535 | 10600 | 
23 | COc1cc(-c2cc3[nH]c(=O)n(-c4cncc5cccc(F)c45)c(=O)c3s2)c(Cl)cc1F [Example 444, 6-(2-chloro-4-fluoro-5-methoxyphenyl)-3-(5-fluoroisoquinolin-4-yl)thieno[3,2-d]pyrimidine-2,4(1H,3H)-dione] | 5.45 | 8.86 | 
24 | COc1ccc(Cl)c(-c2cc3[nH]c(=O)n(-c4cncc5cccc(F)c45)c(=O)c3s2)c1 [Example 445] | 5.71 | 22 | 
25 | COc1ccc(C#N)c(-c2cc3[nH]c(=O)n(-c4cncc5cccc(F)c45)c(=O)c3s2)c1 [Example 446] | 8.74 | 25.5 | 
26 | COc1ccc2cncc(-n3c(=O)[nH]c4cc(-c5ccccc5Cl)sc4c3=O)c2n1 [Example 449, 6-(2-chlorophenyl)-3-(2-methoxy-1,6-naphthyridin-8-yl)thieno[3,2-d]pyrimidine-2,4(1H,3H)-dione] | 14 | 29.2 | 
27 | O=c1[nH]c2cc(-c3ccccc3Cl)ccc2c(=O)n1-c1cncc2cccnc12 [Example 450] | 127 | 211 | 
28 | O=c1ccc2cncc(-n3c(=O)[nH]c4cc(-c5ccccc5Cl)sc4c3=O)c2[nH]1 [Example 452, 6-(2-chlorophenyl)-3-(2-oxo-1,2-dihydro-1,6-naphthyridin-8-yl)thieno[3,2-d]pyrimidine-2,4(1H,3H)-dione] | 9.24 | 82.5 | 
29 | Cc1ccc2cncc(-n3c(=O)[nH]c4cc(-c5ccccc5Cl)sc4c3=O)c2n1 [Example 453, 6-(2-chlorophenyl)-3-(2-methyl-1,6-naphthyridin-8-yl)thieno[3,2-d]pyrimidine-2,4(1H,3H)-dione] | 3.83 | 22.1 | 
30 | COc1cc(-c2cc3[nH]c(=O)n(-c4cncc5ccn(C)c45)c(=O)c3s2)c(Cl)cc1F [Example 454, 6-(2-chloro-4-fluoro-5-methoxyphenyl)-3-(1-methyl-1H-pyrrolo[3,2-c]pyridin-7-yl)thieno[3,2-d]pyrimidine-2,4(1H,3H)-dione] | 4.8 | 3.89 | 
31 | COc1ccc(Cl)c(-c2cc3[nH]c(=O)n(-c4cncc5ccn(C)c45)c(=O)c3s2)c1 [Example 455] | 7.26 | 7.02 | 
32 | COc1ccc(Cl)c(-c2cc3[nH]c(=O)n(-c4cncc5cccnc45)c(=O)c3s2)c1 [Example 456, 6-(2-chloro-5-methoxyphenyl)-3-(1,6-naphthyridin-8-yl)thieno[3,2-d]pyrimidine-2,4(1H,3H)-dione] | 3.59 | 6.79 | 
33 | COc1ccc(Cl)c(-c2cc3[nH]c(=O)n(-c4cncc5ccc(N6CCOCC6)nc45)c(=O)c3s2)c1 [Example 457] | < 2.54 | < 6.04 | 
34 | COc1ccc(Cl)c(-c2cc3[nH]c(=O)n(-c4cncc5ccc(N6CCS(=O)(=O)CC6)nc45)c(=O)c3s2)c1 [Example 458] | 12.1 | 188 | 
35 | COc1ccc(Cl)c(-c2cc3[nH]c(=O)n(-c4cncc5ccc(C)nc45)c(=O)c3s2)c1 [Example 459] | 18.1 | 20.2 | 
36 | COc1ccc(C#N)c(-c2cc3[nH]c(=O)n(-c4cncc5cccnc45)c(=O)c3s2)c1 [Example 460, 2-(3-(1,6-naphthyridin-8-yl)-2,4-dioxo-1,2,3,4-tetrahydrothieno[3,2-d]pyrimidin-6-yl)-4-methoxybenzonitrile] | 9.01 | 60.7 | 
37 | COc1cc(-c2cc3[nH]c(=O)n(-c4cncc5ccc(C)nc45)c(=O)c3s2)c(Cl)cc1F [Example 461, 6-(2-chloro-4-fluoro-5-methoxyphenyl)-3-(2-methyl-1,6-naphthyridin-8-yl)thieno[3,2-d]pyrimidine-2,4(1H,3H)-dione] | 8.07 |  | 10
38 | COc1ccc(Cl)c(-c2ccc3c(=O)n(-c4cncc5cccnc45)c(=O)[nH]c3c2)c1 [Example 462, 7-(2-chloro-5-methoxyphenyl)-3-(1,6-naphthyridin-8-yl)quinazoline-2,4(1H,3H)-dione] | 28.4 | 61.5 | 
39 | COc1cc(-c2cc3[nH]c(=O)n(-c4cncc5ccccc45)c(=O)c3s2)ccc1F [Example 469, 6-(4-fluoro-3-methoxy-phenyl)-3-(4-isoquinolyl)-1H-thieno[3,2-d]pyrimidine-2,4-dione] | 276 | 334 | 
40 | COCCn1c(=O)n(-c2cncc3ccccc23)c(=O)c2sc(-c3ccccc3Cl)cc21 [Example 470, 6-(2-chlorophenyl)-3-(4-isoquinolyl)-1-(2-methoxyethyl)thieno[3,2-d]pyrimidine-2,4-dione] | 46.8 | 71.3 | 
